Here are results for 1 compound from patent publication US10653658B2, “Biofilm inhibiting compositions enhancing weight gain in livestock” (Akeso Biomedical, Inc., priority 2015, dated 2020).

Test [1] in a line: Growth performance of broilers given FeQ or FeTyr in water/feed, dirty litter Campylobacter challenge at day 20 (Example 1). It counts as in vivo, Ross 308 male broilers. On the procedure: (§1) A study was performed to evaluate growth promotion and reduction of Campylobacter carriage using FeQ and FeTyr in Ross 308 male broilers with 7 treatment groups. Each treatment group comprised four replicates of 10 birds per pen (40 birds/treatment group and 4 pens of 10 birds/treatment group), with 2 control groups and 5 test groups. All the test groups and one of the control groups were exposed at day 20 of the trial to dirty litter, which tested positive for Campylobacter. This method was used to provide a more natural method to Campylobacter challenge the birds. Thus there was a positive control where one treatment group was challenged with Campylobacter and one negative control group where the birds were not challenged, and five treatment groups that were all challenged with Campylobacter. The total number of birds used in the 7 treatment groups was 280. Treatment group 1 was a negative control where birds just received the commercial feed, and were not challenged with dirty litter containing Campylobacter. Treatment group 2 was the positive control where the birds received the commercial feed, and were challenged with dirty litter containing Campylobacter at day 20. Treatment group 3 received 0.22 g/L of FeQ in their drinking water and 0.22 g/Kg FeQ in their feed during the entire trial, and was challenged with dirty litter containing Campylobacter at day 20. Treatment group 5 received 0.22 g/L of FeQ in their drinking water during the entire trial, and was challenged with dirty litter containing Campylobacter at day 20. Treatment group 6 received 0.22 g/kg FeQ in their feed during the entire trial, and was challenged with dirty litter containing Campylobacter at day 20. Treatment group 7 received 0.022 g/L FeQ in their drinking water during the entire trial, and was challenged with dirty litter containing Campylobacter at day 20. Treatment group 8 received 0.02 g/L FeTyr in their drinking water during the entire trial, and was challenged with dirty litter containing Campylobacter at day 20. The FeTyr was pre-dissolved in DMSO, and diluted to provide a solution of 0.02 g/L of FeTyr in water. (An additional treatment group 4 was terminated due to solubility issues.)
The birds were fed with a commercial three-phase feeding program using starter, grower and finisher feeds with formulations shown in Table 2. All diets had coccidiostat (MAXIBAN® at 0.0625% in starter and […] and MONTEBAN® at 0.06% in finisher phase). Xylanase (RONOZYME® WX at 200 g per ton) and phytase (RONOZYME® P at 150 grams per ton) were added to all diets.
The feeding program is show in Table 3. The birds were reared in floor pens to day 42, and fed starter, grower and finisher feed at day 0 to 11, 11 to 24, and 24 to 42 days, respectively. All birds were weighed individually and feed weigh backs recorded per pen at day 0, 11, 21, 24 and 42 days.
Prior to challenging the chickens with dirty litter containing Campylobacter at day 20, each pen was tested for Campylobacter using cloacal swabs. All pens tested negative for Campylobacter prior to the challenge. At day 20, litter, which was naturally Campylobacter-contaminated, was tested to confirm the presence of Campylobacter, and then added (approximately 2 kg/pen) to the litter in all pens except in pens for treatment group 1 (the negative control). At day 28, the pen litter was sampled to confirm the presence or absence of Campylobacter. At day 41 and 42, caecal samples were taken from 3 birds per pen (12 birds per treatment group) and tested for Campylobacter enumeration. At day 42, digesta, fecal samples, and caecal content was taken from all birds, and pooled per pen. Two birds per pen were also taken from treatment groups 1-3, euthanized, and blood samples taken. […]

The subject of another test is E. coli. The experiment in a line: E. coli cfu/g of caeca at day 42 (Example 10). It counts as in vivo. Here is the method: (§2) A study was performed to evaluate growth promotion and reduction of Campylobacter carriage using FeTyr in Ross 308 male broilers with 7 treatment groups. Each treatment group comprised eight replicates of 10 birds per pen (80 birds/treatment group), with 2 control groups and […]. All the test groups and both of the control groups were exposed at day 20 of the trial to dirty litter, which tested positive for Campylobacter. This method was used to provide a more natural method to Campylobacter challenge the birds. Thus there were two positive controls where each treatment group was challenged with Campylobacter, and five treatment groups that were all challenged with Campylobacter. The total number of birds used in the 7 treatment groups was 560.
(§3) At day 20, litter, which was naturally Campylobacter-contaminated, was tested to confirm the presence of Campylobacter, and then added (approximately 2 kg/pen) to the litter in all pens. At day 42, caecal samples were taken and tested for Campylobacter, E. coli and Salmonella enumeration.

Test [2] can be described thus: Dose ranging study of FeTyr (TYPLEX) in feed, zootechnical performance of broilers, dirty litter challenge at day 20 (Example 10). It counts as in vivo, Ross 308 male broilers. To be noted: all treatment groups, in feed. Here is the method:
as §2
Treatment group 1 was a positive control where birds just received the commercial feed, and were challenged with dirty litter containing Campylobacter at day 20. Treatment group 2 received 0.01 g/kg of TYPLEX (FeTyr) in their feed, and were challenged with dirty litter containing Campylobacter at day 20. Treatment group 3 received 0.02 g/kg of TYPLEX (FeTyr) in their feed, and was challenged with dirty litter containing Campylobacter at day 20. Treatment group 4 received 0.05 g/kg of TYPLEX (FeTyr) in their feed, and was challenged with dirty litter containing Campylobacter at day 20. Treatment group 5 received 0.1 g/kg of TYPLEX (FeTyr) in their feed, and was challenged with dirty litter containing Campylobacter at day 20. Treatment group 6 received 0.2 g/kg of TYPLEX (FeTyr) in their feed, and was challenged with dirty litter containing Campylobacter at day 20. […] The birds were fed with a commercial three-phase feeding program using starter, grower and finisher feeds as described in Example 1. The birds were reared in floor pens to day 42, and fed starter, grower and finisher feed at day 0 to 11, 11 to 24, and 24 to 42 days, respectively. All birds were weighed individually and feed weigh backs recorded per pen at day 0, 11, 21, 24 and 42 days.
as §3
In order to minimize risk of cross-contamination, standard industry biosecurity measures were used including: disinfecting boots, changing overshoes and gloves between pens/treatments, entering Campylobacter negative pens before entering Campylobacter positive pens, and leaving adjacent pens empty. Daily health, culls, and mortality were recorded. All bird weights were recorded at 0, 11, 21, 24, 33 and 42 days. Weight gains, feed intake and feed conversion ratio (FCR) were derived for each feeding period.

Test [3] concerns Campylobacter. The experiment in a line: Campylobacter carriage in chickens, cfu/g of droppings and caeca at day 42 (Example 1). It counts as in vivo. Here is the method:
as §1
Prior to challenging the chickens with dirty litter containing Campylobacter at day 20, each pen was tested for Campylobacter using cloacal swabs. All pens tested negative for Campylobacter prior to the challenge. At day 20, litter, which was naturally Campylobacter-contaminated, was tested to confirm the presence of Campylobacter, and then added (approximately 2 kg/pen) to the litter in all pens except in pens for treatment group 1 (the negative control). At day 28, the pen litter was sampled to confirm the presence or absence of Campylobacter. At day 41 and 42, caecal samples were taken from 3 birds per pen (12 birds per treatment group) and tested for Campylobacter enumeration. At day 42, digesta, fecal samples, and caecal content was taken from all birds, and pooled per pen. Two birds per pen were also taken from treatment groups 1-3, euthanized, and blood samples taken. Samples were analyzed for blood chemistry, including analysis for alkaline phosphatase, aspartate amino transferase, alanine amino transferase, gamma-glutamyl transferase, lactate dehydrogenase, total protein, albumin, globulin, amylase and glucose.

Test [4] deals with Campylobacter. The experiment in a line: Campylobacter cfu/g of caeca at day 42 (Example 10). It counts as in vivo. As to conditions: in feed. On the procedure: as §2, §3
Another test concerns Salmonella. The experiment in a line: Salmonella cfu/g of caeca at day 42 (Example 10). It counts as in vivo. To be noted: in feed. Here is the method:
as §2, §3

Turning to `N[C@@H](Cc1ccc(O)cc1)C(=O)O.[Fe+3]` [FeTyr, ferric tyrosine], the “effect on growth performance in the absence of Campylobacter challenge, first 20 days” value in test [1] (compared with control groups 1 and 2) is on record as “positive effect”. Also, the “effect on MFCR at day 42 compared with positive control (FIG. 2)” value in test [1] (treatment groups 3, 5, 6, 7 and 8, challenged with dirty litter) is recorded as “positive effect on MFCR”. For the same compound, the “effect on growth: average body weight at day 42 compared with positive control (FIG. 1)” value in test [1] (treatment groups 3, 5, 6, 7 and 8, challenged with dirty litter containing Campylobacter) is reported as “positive effect on growth”. For the same compound, the “E. coli cfu/g of caeca at day 42 (FIG. 16)” value in the test with E. coli (in feed) is “positive effect on reducing Campylobacter infection”. Also, in the test on E. coli (poultry data), the “levels of E. coli in poultry upon treatment” value is “lower levels of E. coli”. In addition, in test [2], the “MFCR at day 42 compared to control group (FIG. 13)” value is recorded as “improved MFCR values” and the “average body weight at day 42 compared with control group (FIG. 12)” value is recorded as “higher average body weight”. In the test with Campylobacter [3] (treatment groups 3 and 5-8), the “Campylobacter cfu/g of caeca samples at day 42 compared with positive control (FIG. 4)” value is “positive effect on reducing Campylobacter infection”. In the test with Campylobacter [3] (treatment groups 3 and 6-8), the “Campylobacter cfu/g of bird droppings at day 42 compared with positive control (FIG. 3)” value is “positive effect on reducing Campylobacter infection”. Further, the “Campylobacter cfu/g of caeca at day 42 (FIG. 14)” value in the test on Campylobacter [4] is given as “positive effect on reducing Campylobacter infection”. The “Salmonella cfu/g of caeca at day 42 (FIG. 15)” value in the test with Salmonella is “positive effect on reducing Campylobacter infection”.
